Laboratory results as given in patent US12479791B2, “Cationic lipid” (Takeda Pharmaceutical Company Limited, priority 2018, dated 2025).

Legend:
[1] = Analysis of luciferase mRNA-encapsulated lipid nanoparticle (Production Example 2); type: physicochemical; details: for Rate of encapsulation / Average particle size: luciferase mRNA lipid nanoparticle; for mRNA concentration: luciferase mRNA lipid nanoparticle dispersion after dialysis and filtration; for Average particle size: cationic lipid:DPPC:cholesterol:GS-020=60:10.6:28:1.4
Text: (§1) The particle size of the lipid particle (in the composition) can be measured by a known approach. For example, the particle size can be calculated as a Z-average particle size by the cumulant analysis of an autocorrelation function using a particle size measurement apparatus Zetasizer Nano ZS (Malvern Instruments) based on a dynamic light scattering measurement technique. The particle size (average particle size) of the lipid particle (in the composition) is, for example, 10 to 200 nm, preferably 60 to 170 nm.
(§2) The concentration and rate of encapsulation of the nucleic acid (e.g., siRNA or mRNA) in the composition of the present invention can be measured by a known approach. For example, the nucleic acid is fluorescently labeled using Quant-iT™ RiboGreen® (Invitrogen Corp.), and the fluorescence intensity can be measured to determine the concentration and the rate of encapsulation. The concentration of the nucleic acid in the composition can be calculated using a calibration curve prepared from aqueous nucleic acid solutions having known concentrations. The rate of encapsulation can be calculated on the basis of the difference in fluorescence intensity between the presence and absence of addition of Triton-X 100 (surfactant for disrupting the lipid particle). The concentration of the nucleic acid in the composition refers to the total concentration of a nucleic acid encapsulated in the lipid particle and an unencapsulated nucleic acid. The rate of encapsulation refers to the ratio of the nucleic acid encapsulated in the lipid particle to all nucleic acids in the composition.
A lipid mixture (cationic lipid:DPPC:cholesterol:GS-020=60:10.6:28:1.4, molar ratio) was dissolved in 90% of EtOH and 10% of water to obtain an 8.5 mg/ml lipid solution. Luciferase mRNA (TriLink BioTechnologies, Inc.) was dissolved in a 10 mM 2-morpholinoethanesulfonic acid (MES) buffer solution (pH 4.0) to obtain a 0.22 mg/ml nucleic acid solution. The obtained lipid solution and nucleic acid solution were mixed at a flow rate ratio of 3 ml/min:6 ml/min at room temperature using NanoAssemblr apparatus (Precision NanoSystems Inc.) to obtain a dispersion containing a composition. The obtained dispersion was dialyzed against water at room temperature for 1 hour and against PBS at 4° C. for 48 hours using Slyde-A-Lyzer (molecular weight cutoff: 20 K, Thermo Fischer Scientific Inc.). Subsequently, the dialysate was filtered through a 0.2 μm syringe filter (Iwaki) and preserved at 4° C.

[2] = tested on: human colorectal cancer-derived cell line HCT116; assay: Transfection of cultured cell with mRNA (luciferase luminescence); type: cell-based; details: 10 ng luciferase mRNA, 24 hours
Method: A human colorectal cancer-derived cell line HCT116 was cultured at a cell density of 6000 cells/well in a 96-well plate. 24 hours later, 10 μl of the lipid particle containing 10 ng of luciferase mRNA was added to the medium. 24 hours after the addition of mRNA, a reagent of Picagene LT2.0 kit (Toyobo Co., Ltd.) was added to the culture plate of HCT116. The luminescence (count per sec (cps)) of luciferase was measured using a luminescence plate reader EnVision (PerkinElmer, Inc.).

[3] = Analysis of Col1a1 siRNA + FVII siRNA-encapsulated lipid nanoparticle (Production Example 3); type: physicochemical; details: for Rate of encapsulation / Particle size: Col1a1 siRNA + FVII siRNA lipid nanoparticle; for Particle size: cationic lipid:DPPC:cholesterol:GS-020=60:10.6:28:1.4; for Col1a1 siRNA + FVII siRNA concentration: lipid nanoparticle dispersion after dialysis and filtration
Text: as §1, §2
A lipid mixture (cationic lipid:DPPC:cholesterol:GS-020=60:10.6:28:1.4, molar ratio) was dissolved in 90% of EtOH and 10% of a 25 mM acetate buffer solution (pH 4.0) to obtain a 7.4 mg/ml lipid solution. siRNA against collagen 1a1 (Col1a1) and siRNA against factor VII (FVII) were dissolved in equal weights in a 25 mM acetate buffer solution (pH 4.0) to obtain a 0.15 mg/ml nucleic acid solution. The sequences of Col1a1 siRNA and FVII siRNA were quoted from Hepatology, […], No. 4, 2015, and Silence, Vol. 1, No. 16, 2010, respectively. The obtained lipid solution and nucleic acid solution were mixed at a flow rate ratio of 1 ml/min:5 ml/min using a microfluidic mixing apparatus NanoAssemblr (Precision NanoSystems Inc.) to obtain a dispersion containing a composition. The obtained dispersion was dialyzed against water at room temperature for 1 hour and against PBS at room temperature for 18 hours using Slyde-A-Lyzer (molecular weight cutoff: 20 K, Thermo Fischer Scientific Inc.). Subsequently, the dialysate was filtered through a 0.2 μm syringe filter (Iwaki) and preserved at 4° C. The siRNA-encapsulated lipid nanoparticle was very favorably formed using the compound of the present invention.

[4] = tested on: Col1a1 gene; assay: Hepatic collagen 1a1 gene knockdown in CCl4 hepatic fibrosis mouse model; type: in vivo; details: male Balb/c mouse, Col1a1 siRNA + FVII siRNA 0.1 + 0.1 mg/kg intravenous, liver 4 days after administration, qPCR normalized with GAPDH, vs siRNA non-administration group
Method: (§3) The Col1a1 siRNA-encapsulated lipid nanoparticle was administered at 0.1 mg/kg into the orbital plexus of the vein of each 8-week-old male Balb/c mouse. 3 hours later, CCl4 mixed with corn oil was orally administered at a dose of 0.1 mL/kg (10 mL/kg) by forced single-dose administration (n=6 in each group). 4 days after the administration of the siRNA-encapsulated lipid nanoparticle, the liver was collected from the mouse euthanized under anesthesia, followed by gene expression analysis by quantitative PCR. The Col1a1 gene expression level and the FVII gene expression level were normalized with the expression level of GAPDH. The amount of decrease in Col1a1 gene expression as compared with a siRNA non-administration group was regarded as the rate of knockdown. In mice intravenously given the siRNA-encapsulated lipid nanoparticle formed using the compound of the present invention, the knockdown of the activated stellate cell marker gene Col1a1 gene was strongly observed, as compared with the rate of knockdown of the hepatic parenchymal cell marker gene FVII.

[5] = tested on: FVII gene; assay: Hepatic FVII gene knockdown in CCl4 hepatic fibrosis mouse model; type: in vivo; details: male Balb/c mouse, Col1a1 siRNA + FVII siRNA 0.1 + 0.1 mg/kg intravenous, liver 4 days after administration, qPCR normalized with GAPDH
Method: as §3

CCCCCCCC(=O)OCC(COC(=O)CCCCCCC)(COC(=O)CCCCN(C)C)COC(=O)CCC(CCCCCCC)CCCCCCC [Example 1, 3-((5-(Dimethylamino)pentanoyl)oxy)-2,2-bis((octanoyloxy)methyl)propyl 4-heptylundecanoate]
Rate of encapsulation [1]: 96% | mRNA concentration [1]: 145 µg/mL | Average particle size [1]: 112 nm | Average luminescence (cps) of 3 wells ([2]; Table 10 (PBS control 293)): 110733 cps | Rate of encapsulation [3]: 98% | Particle size [3]: 111 nm | Col1a1 siRNA + FVII siRNA concentration [3]: 128 µg/mL | Rate of Col1a1 knockdown [4]: 86% | Rate of FVII knockdown [5]: 0%

CCCCCCCC(=O)OCC(COC(=O)CCCCCN(C)C)(COC(=O)C(CCCCCC)CCCCCC)COC(=O)C(CCCCCC)CCCCCC [Example 8]
Rate of encapsulation [1]: 91% | mRNA concentration [1]: 97 µg/mL | Average particle size [1]: 103 nm | Average luminescence (cps) of 3 wells ([2]; Table 6 (PBS control 1040)): 381693 cps

CCCCCCCC(=O)OCC(COC(=O)CCCCN(C)C)(COC(=O)CC(CCCCC)CCCCC)COC(=O)CC(CCCCC)CCCCC [Example 9]
Rate of encapsulation [1]: 94% | mRNA concentration [1]: 77 µg/mL | Average particle size [1]: 96 nm | Average luminescence (cps) of 3 wells ([2]; Table 7 (PBS control 413)): 63493 cps

CCCCCCCC(=O)OCC(COC(=O)CCCCCCC)(COC(=O)CCCCN(C)C)COC(=O)CCC(CCCC)C(CCCC)CCCC (stereo not shown) [Example 10, 3-((5-(Dimethylamino)pentanoyl)oxy)-2,2-bis((octanoyloxy)methyl)propyl 4,5-dibutylnonanoate]
Rate of encapsulation [1]: 96% | mRNA concentration [1]: 83 µg/mL | Average particle size [1]: 123 nm | Average luminescence (cps) of 3 wells ([2]; Table 8 (PBS control 1293)): 500747 cps | Average luminescence (cps) of 3 wells ([2]; Table 9 (PBS control 80)): 176813 cps | Average luminescence (cps) of 3 wells ([2]; Table 10 (PBS control 293)): 112893 cps | Rate of encapsulation [3]: 97% | Particle size [3]: 101 nm | Col1a1 siRNA + FVII siRNA concentration [3]: 137 µg/mL | Rate of Col1a1 knockdown [4]: 77% | Rate of FVII knockdown [5]: 0%

CCCCCCCC(=O)OCC(COC(=O)CCCCCCC)(COC(=O)CCCCCN(C)C)COC(=O)CCC(CCCC)C(CCCC)CCCC (stereo not shown) [Example 11, 3-((6-(Dimethylamino)hexanoyl)oxy)-2,2-bis((octanoyloxy)methyl)propyl 4,5-dibutylnonanoate]
Rate of encapsulation [1]: 93% | mRNA concentration [1]: 78 µg/mL | Average particle size [1]: 122 nm | Average luminescence (cps) of 3 wells ([2]; Table 8 (PBS control 1293)): 572560 cps | Rate of encapsulation [3]: 97% | Particle size [3]: 91 nm | Col1a1 siRNA + FVII siRNA concentration [3]: 320 µg/mL | Rate of Col1a1 knockdown [4]: 77% | Rate of FVII knockdown [5]: 21%

CCCCCC(=O)OCC(COC(=O)CCCCC)(COC(=O)CCCCN(C)C)COC(=O)CCC(CCCCC)C(CCCCC)CCCCC (stereo not shown) [Example 12, 3-((5-(Dimethylamino)pentanoyl)oxy)-2,2-bis((hexanoyloxy)methyl)propyl 4,5-dipentyldecanoate]
Rate of encapsulation [1]: 93% | mRNA concentration [1]: 160 µg/mL | Average particle size [1]: 134 nm | Average luminescence (cps) of 3 wells ([2]; Table 9 (PBS control 80)): 62587 cps

CCCCCCCC(=O)OCC(COC(=O)CCCCCCC)(COC(=O)CCCCN(C)C)COC(=O)CCC(CCCCC)C(CCCCC)CCCCC (stereo not shown) [Example 13, 3-((5-(Dimethylamino)pentanoyl)oxy)-2,2-bis((octanoyloxy)methyl)propyl 4,5-dipentyldecanoate]
Rate of encapsulation [1]: 99% | mRNA concentration [1]: 155 µg/mL | Average particle size [1]: 119 nm | Average luminescence (cps) of 3 wells ([2]; Table 9 (PBS control 80)): 269467 cps | Rate of encapsulation [3]: 97% | Particle size [3]: 103 nm | Col1a1 siRNA + FVII siRNA concentration [3]: 122 µg/mL | Rate of Col1a1 knockdown [4]: 86% | Rate of FVII knockdown [5]: 15%

CCCCCC(=O)OCC(COC(=O)CCCCC)(COC(=O)CCCCN(C)C)COC(=O)CCC(CCCC)C(CCCC)CCCC (stereo not shown) [Example 15, 3-((5-(Dimethylamino)pentanoyl)oxy)-2,2-bis((hexanoyloxy)methyl)propyl 4,5-dibutylnonanoate]
Rate of encapsulation [1]: 99% | mRNA concentration [1]: 127 µg/mL | Average particle size [1]: 164 nm | Average luminescence (cps) of 3 wells ([2]; Table 10 (PBS control 293)): 3293 cps

CCCCCCCC(=O)OCC(COC(=O)CCCCCCC)(COC(=O)CCCCN(C)C)COC(=O)CCC(CCC)C(CCC)CCC (stereo not shown) [Example 17, 3-((5-(Dimethylamino)pentanoyl)oxy)-2,2-bis((octanoyloxy)methyl)propyl 4,5-dipropyloctanoate]
Rate of encapsulation [1]: 87% | mRNA concentration [1]: 116 µg/mL | Average particle size [1]: 152 nm | Average luminescence (cps) of 3 wells ([2]; Table 10 (PBS control 293)): 7987 cps

CCCCCCCC(=O)OCC(COC(=O)CCCCCCC)(COC(=O)CCC(CCCC)C(CCCC)CCCC)COC(=O)NCCCCN(C)C (stereo not shown) [Example 18, 3-(((4-(Dimethylamino)butyl)carbamoyl)oxy)-2,2-bis((octanoyloxy)methyl)propyl 4,5-dibutylnonanoate]
Rate of encapsulation [1]: 99% | mRNA concentration [1]: 103 µg/mL | Average particle size [1]: 77 nm | Average luminescence (cps) of 3 wells ([2]; Table 10 (PBS control 293)): 12813 cps

CCCCCCCC(=O)OCC(COC(=O)CCCCCCC)(COC(=O)CCCN(C)C)COC(=O)CCC(CCCC)C(CCCC)CCCC (stereo not shown) [Example 19, 3-((4-(Dimethylamino)butanoyl)oxy)-2,2-bis((octanoyloxy)methyl)propyl 4,5-dibutylnonanoate]
Rate of encapsulation [3]: 96% | Particle size [3]: 89 nm | Col1a1 siRNA + FVII siRNA concentration [3]: 112 µg/mL | Rate of Col1a1 knockdown [4]: 71% | Rate of FVII knockdown [5]: 31%
